Measured values published in patent US20090054501A1, “AZOLE COMPOUNDS USED AS TUBERCULOSTATIC AND LEISHMANICIDE AGENTS” (priority 2005, published 2009).
Values after ≈ are worked out from the molar mass of the structure shown. Values joined by “and” are separate entries in the source; they are usually repeats but may differ in a detail not shown here. Identical values can stand only once. Like-named read-outs stand apart in the source and are kept apart here.

Legend:
[1] = test system: Mycobacterium tuberculosis H37Rv (ATCC-27294); assay: MIC by MABA (Microplate Alamar Blue Assay), in vitro antimicrobial activity; type: cell-based; conditions: for Inhibition (%): Table 2, M. tuberculosis H37Rv (ATCC 27294), concentration not given
[2] = test system: promastigote forms of Leishmania amazonensis; assay: Leishmanicide evaluation in vitro, live parasites counted by fluorescence; type: cell-based; conditions: L. amazonensis promastigotes, read-out: Percentage of parasitic inhibition; for inhibition at 160 µg/mL: concentration 160 μg/mL; for inhibition at 10 µg/mL: concentration 10 μg/mL
Protocol: The evaluation of the leishmanicide activity of the type I and II 1,2,3-triazole derivatives was made through in vitro essays against promastigote forms of Leishmania amazonensis, and after the incubation with compounds, live parasites are counted by fluorescence, thus obtaining as a result, the percentage of inhibition of the compounds evaluated.
Essays were performed in triplicate using pentamidine as a positive pattern with a 160 μg/mL concentration.
The evaluation of the leishmanicide activity of type I (Formula XII) and II (Formula XIII) imidazole derivatives was performed through in vitro essays against promastigote forms of Leishmania amazonensis, and after the incubation with compounds, live parasites are counted by fluorescence, thus obtaining as a result the inhibition percentage of the evaluated compounds.
Essays were performed in triplicate using pentamidine as a positive pattern with a 160 μg/mL concentration, determining which compounds evaluated inhibited the parasite in lower concentrations and the percentage higher than the pattern. Table 6 lists the results obtained in the leishmanicide evaluation of derivatives 140a 148a 146a, 149a.

[3] = 1,2,3-triazole derivatives types I-III and rifampicin comparison pattern, M. tuberculosis H37Rv, MABA
[4] = Table 2, type I and II 1,2,3-triazoles, M. tuberculosis H37Rv (ATCC 27294), MABA
[5] = Mycobacterium tuberculosis, Table 2, type I and II 1,2,3-triazoles, M. tuberculosis H37Rv (ATCC 27294), MABA, read-out: MIC
[6] = Mycobacterium tuberculosis, 1,2,3-triazole derivatives types I-III and rifampicin comparison pattern, M. tuberculosis H37Rv, MABA, read-out: MIC
[7] = Mycobacterium tuberculosis, Table 4, type I (Formula XII) imidazole derivatives, read-out: MIC
[8] = Mycobacterium tuberculosis, Table 5, type II (Formula XIII) imidazole derivatives, read-out: MIC

O=Cc1cn(-c2ccc(Cl)cc2)nn1 [114a, 4-carboxaldehyde-1-(4-chlorophenyl)-1H-1,2,3-triazole]
MIC [1, 3]: 5 µg/mL and 5.0 µg/mL | MIC (μg/mL) [1, 4]: 5,0 μg/mL

O=Cc1cn(-c2ccc(Br)cc2)nn1 [114b, 4-carboxaldehyde-1-(4-bromophenyl)-1H-1,2,3-triazole]
MIC [1, 3]: 5.0 µg/mL (≈ 19.8 µM) | MIC (μg/mL) [1, 4]: 5,0 μg/mL

Cc1ccc(-n2cc(C=O)nn2)cc1 [114c, 4-carboxaldehyde-1-(4-methylphenyl)-1H-1,2,3-triazole]
MIC [1, 3]: 2.5 µg/mL (≈ 13.4 µM) | MIC (μg/mL) [1, 4]: 2,5 μg/mL

COc1ccc(-n2cc(C=O)nn2)cc1 [114d, 4-carboxaldehyde-1-(4-methoxyphenyl)-1H-1,2,3-triazole]
MIC (μg/mL) [1, 4]: 10,0 μg/mL

COc1ccc(OC)c(-n2cc(C=O)nn2)c1 [114e, 4-carboxaldehyde-1-(2,5-dimethoxyphenyl)-1H-1,2,3-triazole]
MIC (μg/mL) [1, 4]: 80,0 μg/mL

O=Cc1cn(-c2cccc(Cl)c2)nn1 [114f, 4-carboxaldehyde-1-(3-chlorophenyl)-1H-1,2,3-triazole]
MIC [1, 5]: 10 µg/mL (≈ 48.2 µM) | Inhibition (%) [1]: 100% | inhibition at 320 µg/mL ([2]; concentration 320 μg/mL): 72%

O=Cc1cn(-c2cc(Cl)cc(Cl)c2)nn1 [114g, 4-carboxaldehyde-1-(3,5-dichlorophenyl)-1H-1,2,3-triazole]
MIC [1, 3]: 2.5 µg/mL (≈ 10.3 µM) | MIC (μg/mL) [1, 4]: 2,5 μg/mL

N#Cc1cccc(-n2cc(C=O)nn2)c1 [114h, 4-carboxaldehyde-1-(3-cyanophenyl)-1H-1,2,3-triazole]
MIC (μg/mL) [1, 4]: 20,0 μg/mL

N#Cc1ccc(-n2cc(C=O)nn2)cc1 [114i, 4-carboxaldehyde-1-(4-cyanophenyl)-1H-1,2,3-triazole]
MIC [1, 3]: 5.0 µg/mL (≈ 25.2 µM) | MIC (μg/mL) [1, 4]: 5,0 μg/mL

O=Cc1cn(-c2ccc([N+](=O)[O-])cc2)nn1 [114j, 4-carboxaldehyde-1-(4-nitrophenyl)-1H-1,2,3-triazole]
MIC [1, 6]: 20 µg/mL (≈ 91.7 µM) | inhibition at 160 µg/mL [2]: 11%

COc1ccccc1-n1cc(C=O)nn1 [114l, 4-carboxaldehyde-1-(2-methoxyphenyl)-1H-1,2,3-triazole]
MIC (μg/mL) [1, 4]: 40,0 μg/mL

COc1ccc(-n2cc(C=O)nn2)cc1OC [114m, 4-carboxaldehyde 1-(3,4-dimethoxyphenyl)-1H-1,2,3-triazole]
MIC (μg/mL) [1, 4]: 80,0 μg/mL

FC(F)c1cn(-c2ccc(Cl)cc2)nn1 [121a, 1-(4-chlorophenyl)-4-difluoromethyl-1H-1,2,3-triazole]
MIC ([1]; Mycobacterium tuberculosis): 40 µg/mL (≈ 174 µM) | MIC (μg/mL) [1, 4]: 40,0 μg/mL

FC(F)c1cn(-c2ccc(Br)cc2)nn1 [121b, 1-(4-bromophenyl)-4-difluoromethyl-1H-1,2,3-triazole]
MIC [1, 5]: 20 µg/mL (≈ 73 µM) | Inhibition (%) [1]: 75%

Cc1ccc(-n2cc(C(F)F)nn2)cc1 [121c, 1-(4-methylphenyl)-4-difluoromethyl-1H-1,2,3-triazole]
MIC [1, 5]: 40 µg/mL (≈ 191 µM) | Inhibition (%) [1]: 87%

COc1ccc(-n2cc(C(F)F)nn2)cc1 [121d, 1-(4-methoxyphenyl)-4-difluoromethyl-1H-1,2,3-triazole]
MIC [1, 5]: 10 µg/mL (≈ 44.4 µM) | Inhibition (%) [1]: 93%

COc1ccc(OC)c(-n2cc(C(F)F)nn2)c1 [121e, 1-(2,5-dimethoxyphenyl)-4-difluoromethyl-1H-1,2,3-triazole]
MIC [1, 5]: 80 µg/mL (≈ 313 µM) | Inhibition (%) [1]: 74%

FC(F)c1cn(-c2cccc(Cl)c2)nn1 [121f, 1-(3-chlorophenyl)-4-difluoromethyl-1H-1,2,3-triazole]
MIC [1, 5]: 80 µg/mL (≈ 348 µM) | Inhibition (%) [1]: 54% | inhibition at 10 µg/mL [2]: 93%

FC(F)c1cn(-c2cc(Cl)cc(Cl)c2)nn1 [121g, 1-(3,5-dichlorophenyl)-4-difluoromethyl-1H-1,2,3-triazole]
MIC [1, 5]: 80 µg/mL (≈ 303 µM) | Inhibition (%) [1]: 55%

N#Cc1cccc(-n2cc(C(F)F)nn2)c1 [121h, 1-(3-cyanophenyl)-4-difluoromethyl-1H-1,2,3-triazole]
MIC [1, 5]: 80 µg/mL (≈ 363 µM)

N#Cc1ccc(-n2cc(C(F)F)nn2)cc1 [121i, 1-(4-cyanophenyl)-4-difluoromethyl-1H-1,2,3-triazole]
MIC [1, 5]: 20 µg/mL (≈ 90.8 µM)

O=[N+]([O-])c1ccc(-n2cc(C(F)F)nn2)cc1 [121j, 1-(4-nitrophenyl)-4-difluoromethyl-1H-1,2,3-triazole]
MIC [1, 6]: 40 µg/mL (≈ 167 µM)

COc1ccc(-n2cc(C(F)F)nn2)cc1OC [121m, 1-(3,4-dimethoxyphenyl)-4-difluoromethyl-1H-1,2,3-triazole]
MIC [1, 5]: 80 µg/mL (≈ 313 µM) | Inhibition (%) [1]: 66%

CCOC(=O)c1ncn(-c2ccc(C)cc2)c1N(C(=O)c1ccc(F)cc1)C(=O)c1ccc(F)cc1 [140a]
inhibition at 10 µg/mL [2]: 79%

CCOC(=O)c1ncn(-c2ccc(C#N)cc2)c1N(C(=O)c1ccc(F)cc1)C(=O)c1ccc(F)cc1 [140b]
MIC [1, 7]: 1.2 µg/mL (≈ 2.4 µM)

CCOC(=O)c1ncn(-c2ccc(C)cc2)c1N(C(=O)c1ccccc1F)C(=O)c1ccccc1F [146a]
MIC [1, 7]: 3 µg/mL (≈ 6.13 µM) | inhibition at 80 µg/mL ([2]; concentration 80 μg/mL): 75%

CCOC(=O)c1ncn(-c2ccc(Cl)cc2)c1N(C(=O)c1ccccc1F)C(=O)c1ccccc1F [146c]
MIC [1, 7]: 3 µg/mL (≈ 5.88 µM)

CCOC(=O)c1ncn(-c2c(F)cccc2F)c1N(C(=O)c1ccccc1F)C(=O)c1ccccc1F [146e]
MIC [1, 7]: 3 µg/mL (≈ 5.87 µM)

CCOC(=O)c1ncn(-c2ccc(C)cc2)c1NC(=O)c1ccc(F)cc1 [148a, Ester ethyl 5-[(4-fluorobenzoic)amino]-1-(4-methylphenyl)-1H-imidazole-4-carboxylate]
MIC [1, 8]: 3 µg/mL (≈ 8.17 µM) | inhibition at 10 µg/mL [2]: 90%

CCOC(=O)c1ncn(-c2ccc(C)cc2)c1NC(=O)c1ccccc1F [149a, Ester ethyl 5-[(2-fluorobenzoic)amino]-1-(4-methylphenyl)-1H-imidazole-4-carboxylate]
inhibition at 160 µg/mL [2]: 93%

CCOC(=O)c1ncn(-c2ccc(C#N)cc2)c1NC(=O)c1ccccc1F [149b, Ester ethyl 1-(4-cyanophenyl)-5-[(2-fluorobenzoic)amino]-1H-imidazole-4-carboxylate]
MIC [1, 8]: 3 µg/mL (≈ 7.93 µM)

CCOC(=O)c1ncn(-c2ccc(Cl)cc2)c1NC(=O)c1ccccc1F [149c, Ester ethyl 1-(4-chlorophenyl)-5-[(2-fluorobenzoic)amino]-1H-imidazole-4-carboxylate]
MIC [1, 8]: 3 µg/mL (≈ 7.74 µM)

N=C(N)c1ccc(OCCCCCOc2ccc(C(=N)N)cc2)cc1 [Pentamidine, pentamidine, reference compound]
inhibition at 160 µg/mL [2]: 53%

CO[C@H]1/C=C/O[C@@]2(C)Oc3c(C)c(O)c4c(O)c(c(/C=N/N5CCN(C)CC5)c(O)c4c3C2=O)NC(=O)/C(C)=C\C=C\[C@H](C)[C@H](O)[C@@H](C)[C@@H](O)[C@@H](C)[C@H](OC(C)=O)[C@@H]1C [Rifampicin, rifampicin, reference compound]
MIC [1, 3]: 1.0 µg/mL (≈ 1.22 µM) | MIC ([1]; Mycobacterium tuberculosis, imidazole derivatives and rifampicin comparison pattern, M. tuberculosis H37Rv, MABA, read-out: MIC): 1 µg/mL (≈ 1.22 µM) | MIC (μg/mL) [1, 4]: 1,0 μg/mL

Clc1ccc(/N=C/c2cn(-c3ccc(Cl)cc3)nn2)cc1 [compound 119, (E)-4-chloride-N-((1-(4-chlorophenyl)-1H-1,2,3-triazole-4-il)methylene) benzenamine]
MIC [1, 3]: 40 µg/mL (≈ 126 µM)

Brc1ccc(/N=C/c2cn(-c3ccc(Br)cc3)nn2)cc1 [compound 120, (E)-4-bromo-N-((1-(4-bromophenyl)-1H-1,2,3-triazole-4-il)methylene) benzenamine]
MIC [1, 3]: 20 µg/mL (≈ 49.3 µM)
